Consider 39 molecules from ChEMBL document CHEMBL4418493, “N-hydroxyformamide compounds and compositions comprising them for use as BMP1, TLL1 and/or TLL2 inhibitors” (2018).

Structures are written as SMILES. Bounds are passed on as bounds.

Series [1] can be described thus: Drug metabolism in heparinized pooled human plasma at pH 7.5 assessed as formation of (S)-2-(2-(carboxymethoxy)-4-(5-((((R)-2-((R)-1-(N-hydroxyformamido)propyl)heptanamido)methyl)carbamoyl)furan-2-yl)benzamido)succinic acid at 100 to 2000 ng/ml incubated up to 4 or 24 hrs by LC-MS/MS analysis. In kind it is ADME, cell-free. As to conditions: pH 7.5, 24 h.
The nature of series [2]: Reduction in PICP levels in human cardiac fibroblasts incubated for 24 to 48 hrs by ELISA. In kind it is functional. For orientation: ELISA stands for enzyme-linked immunosorbent assay.
Series [3] is described as follows: Drug metabolism in heparinized pooled human plasma at pH 7.5 assessed as formation of (3-ethoxy-5-(5-((((R)-2-((R)-1-(N-hydroxyformamido)propyl)heptanamido)methyl)carbamoyl) furan-2-yl)phenyl)phosphonic acid at 100 to 2000 ng/ml incubated up to 4 or 24 hrs by LC-MS/MS analysis. The series is classed as ADME, cell-free. As to conditions: pH 7.5, 24 h.

For the molecule `CCCCC[C@@H](C(=O)NCNC(=O)c1ccc(-c2ccc(C(=O)N[C@@H](CC(=O)O)C(=O)O)c(OCC(=O)O)c2)o1)[C@@H](CC)N(C=O)OC(=O)c1c(C)cccc1F`, the Drug metabolism result in series [1] is recorded as “Metabolite_Detected”. `CCCCC[C@@H](C(=O)NCNC(=O)c1ccc(-c2ccc(C(=O)N[C@@H](CC(=O)O)C(=O)O)c(OCC(=O)O)c2)o1)[C@@H](CC)N(C=O)OC(=O)N(C)C(=O)OC(C)(C)C`: the Drug metabolism entry in series [1] was “Metabolite_Detected”. This molecule gave an IC50 in series [2] below 3.98 µM.

As for `CCCCC[C@@H](C(=O)NCNC(=O)c1ccc(-c2cc(OCC)cc(P(=O)(O)O)c2)o1)[C@@H](CC)N(C=O)OC(=O)NC(C)(C)c1ccccc1`, the Drug metabolism result in series [3] is “Metabolite_Detected”. Still for that read-out and setting: to `CCCCC[C@@H](C(=O)NCNC(=O)c1ccc(-c2cc(OCC)cc(P(=O)(O)O)c2)o1)[C@@H](CC)N(C=O)OC(=O)c1c(C)cccc1F` belongs “Metabolite_Detected”. Consider `CCCCC[C@@H](C(=O)NCNC(=O)c1ccc(-c2ccc(C(=O)N[C@@H](CC(=O)O)C(=O)O)c(OCC(=O)O)c2)o1)[C@@H](CC)N(C=O)OC(=O)C(c1ccccc1)c1ccccc1`, for which the Drug metabolism result in series [1] is reported as “Metabolite_Detected”. Further, the IC50 in series [2] is below 3.98 µM.

For `CCCCC[C@@H](C(=O)NCNC(=O)c1ccc(-c2ccc(C(=O)N[C@@H](CC(=O)O)C(=O)O)c(OCC(=O)O)c2)o1)[C@@H](CC)N(C=O)OC(=O)C1(C)CC1`, the Drug metabolism result in series [1] is given as “Metabolite_Detected”. This molecule gave an IC50 in series [2] below 3.98 µM. For `CCCCC[C@@H](C(=O)NCNC(=O)c1ccc(-c2cc(OCC)cc(P(=O)(O)O)c2)o1)[C@@H](CC)N(C=O)OC(=O)c1ccc(N2CCOCC2)cc1`, the Drug metabolism entry in series [3] is listed as “Metabolite_Detected”.

Regarding `CCCCC[C@@H](C(=O)NCNC(=O)c1ccc(-c2ccc(C(=O)N[C@@H](CC(=O)O)C(=O)O)c(OCC(=O)O)c2)o1)[C@@H](CC)N(C=O)OC(=O)c1c(C)ccnc1C`, the Drug metabolism entry in series [1] was “Metabolite_Detected”. Besides, the IC50 in series [2] is below 3.98 µM.

For the molecule `CCCCC[C@@H](C(=O)NCNC(=O)c1ccc(-c2ccc(C(=O)N[C@@H](CC(=O)O)C(=O)O)c(OCC(=O)O)c2)o1)[C@@H](CC)N(C=O)OC(=O)C(CCC)CCC`, the Drug metabolism entry in series [1] is “Metabolite_Detected”. Besides, the IC50 in series [2] is below 3.98 µM.

With `CCCCC[C@@H](C(=O)NCNC(=O)c1ccc(-c2cc(OCC)cc(P(=O)(O)O)c2)o1)[C@@H](CC)N(C=O)OC(=O)c1ccccc1OC(=O)N(C)C`, the Drug metabolism entry in series [3] is listed as “Metabolite_Detected”. With `CCCCC[C@@H](C(=O)NCNC(=O)c1ccc(-c2ccc(C(=O)N[C@@H](CC(=O)O)C(=O)O)c(OCC(=O)O)c2)o1)[C@@H](CC)N(C=O)OC(=O)c1ccc(OC)cc1C(C)C`, in series [1], the Drug metabolism result is “Metabolite_Detected”. Moreover, in series [2], the IC50 was below 3.98 µM. For `CCCCC[C@@H](C(=O)NCNC(=O)c1ccc(-c2ccc(C(=O)N[C@@H](CC(=O)O)C(=O)O)c(OCC(=O)O)c2)o1)[C@@H](CC)N(C=O)OC(=O)c1ccc2ccccc2c1`, the Drug metabolism entry in series [1] is recorded as “Metabolite_Detected”. Moreover, the IC50 in series [2] is below 3.98 µM. For `CCCCC[C@@H](C(=O)NCNC(=O)c1ccc(-c2ccc(C(=O)N[C@@H](CC(=O)O)C(=O)O)c(OCC(=O)O)c2)o1)[C@@H](CC)N(C=O)OC(=O)c1ccc(OC)c(OC)c1`, in that order: “Metabolite_Detected” and below 3.98 µM. As to `CCCCC[C@@H](C(=O)NCNC(=O)c1ccc(-c2ccc(C(=O)N[C@@H](CC(=O)O)C(=O)O)c(OCC(=O)O)c2)o1)[C@@H](CC)N(C=O)OC(=O)c1ccncc1C.N.N.N`, the Drug metabolism result in series [1] is “Metabolite_Detected”. The molecule further gave an IC50 in series [2] below 3.98 µM. As to `CCCCC[C@@H](C(=O)NCNC(=O)c1ccc(-c2ccc(C(=O)N[C@@H](CC(=O)O)C(=O)O)c(OCC(=O)O)c2)o1)[C@@H](CC)N(C=O)OC(=O)Nc1ccccc1`, the Drug metabolism entry in series [1] is “Metabolite_Detected”. Turning to `CCCCC[C@@H](C(=O)NCNC(=O)c1ccc(-c2ccc(C(=O)N[C@@H](CC(=O)O)C(=O)O)c(OCC(=O)O)c2)o1)[C@@H](CC)N(C=O)OC(=O)NC`, the Drug metabolism result in series [1] is “Metabolite_Detected”. As to `CCCCC[C@@H](C(=O)NCNC(=O)c1ccc(-c2ccc(C(=O)N[C@@H](CC(=O)O)C(=O)O)c(OCC(=O)O)c2)o1)[C@@H](CC)N(C=O)OC(=O)c1ccc(OC)cc1OC.N.N.N`, in series [1], the Drug metabolism entry was “Metabolite_Detected”. Further, the concentration for half-maximal inhibition (IC50) in series [2] was below 3.98 µM. For `CCCCC[C@@H](C(=O)NCNC(=O)c1ccc(-c2ccc(C(=O)N[C@@H](CC(=O)O)C(=O)O)c(OCC(=O)O)c2)o1)[C@@H](CC)N(C=O)OC(=O)c1ccccc1C(C)C`, the Drug metabolism result in series [1] is listed as “Metabolite_Detected”. The same molecule showed an IC50 in series [2] below 3.98 µM. For `CCCCC[C@@H](C(=O)NCNC(=O)c1ccc(-c2ccc(C(=O)N[C@@H](CC(=O)O)C(=O)O)c(OCC(=O)O)c2)o1)[C@@H](CC)N(C=O)OC(=O)NC(C)C`, in that order: “Metabolite_Detected” and below 3.98 µM. On to `CCCCC[C@@H](C(=O)NCNC(=O)c1ccc(-c2ccc(C(=O)N[C@@H](CC(=O)O)C(=O)O)c(OCC(=O)O)c2)o1)[C@@H](CC)N(C=O)OC(=O)c1c(C)cccc1OC`, for which the Drug metabolism entry in series [1] is “Metabolite_Detected”. The molecule also had an IC50 in series [2] below 3.98 µM. Regarding `CCCCCCCCC(=O)ON(C=O)[C@H](CC)[C@@H](CCCCC)C(=O)NCNC(=O)c1ccc(-c2cc(OCC)cc(P(=O)(O)O)c2)o1`, in series [3], the Drug metabolism result is listed as “Metabolite_Detected”. `CCCCC[C@@H](C(=O)NCNC(=O)c1ccc(-c2ccc(C(=O)N[C@@H](CC(=O)O)C(=O)O)c(OCC(=O)O)c2)o1)[C@@H](CC)N(C=O)OC(=O)c1ccccc1N`: the Drug metabolism entry in series [1] is on record as “Metabolite_Detected”. Further, the 50% inhibitory concentration (IC50) in series [2] was below 3.98 µM. With `CCCCC[C@@H](C(=O)NCNC(=O)c1ccc(-c2cc(OCC)cc(P(=O)(O)O)c2)o1)[C@@H](CC)N(C=O)OC(=O)c1ccc(F)cc1C(C)C`, in series [3], the Drug metabolism result is on record as “Metabolite_Detected”. For the molecule `CCCCC[C@@H](C(=O)NCNC(=O)c1ccc(-c2ccc(C(=O)N[C@@H](CC(=O)O)C(=O)O)c(OCC(=O)O)c2)o1)[C@@H](CC)N(C=O)OC(=O)NC(C)(C)c1ccccc1`, in series [1], the Drug metabolism entry was “Metabolite_Detected”. Regarding `CCCCC[C@@H](C(=O)NCNC(=O)c1ccc(-c2ccc(C(=O)N[C@@H](CC(=O)O)C(=O)O)c(OCC(=O)O)c2)o1)[C@@H](CC)N(C=O)OC(=O)c1ccc(F)cc1C(C)C`, in series [1], the Drug metabolism entry was “Metabolite_Detected”. Further, the IC50 in series [2] was below 3.98 µM. As for `CCCCC[C@@H](C(=O)NCNC(=O)c1ccc(-c2cc(OCC)cc(P(=O)(O)O)c2)o1)[C@@H](CC)N(C=O)OC(=O)c1ccc(-n2cccc2)cc1.N.N`, the Drug metabolism result in series [3] is on record as “Metabolite_Detected”. With `CCCCC[C@@H](C(=O)NCNC(=O)c1ccc(-c2ccc(C(=O)N[C@@H](CC(=O)O)C(=O)O)c(OCC(=O)O)c2)o1)[C@@H](CC)N(C=O)OC(=O)c1ccccc1NC`, the Drug metabolism entry in series [1] is on record as “Metabolite_Detected”. The half-inhibitory concentration (IC50) in series [2] was below 3.98 µM.

Regarding `CCCCC[C@@H](C(=O)NCNC(=O)c1ccc(-c2ccc(C(=O)N[C@@H](CC(=O)O)C(=O)O)c(OCC(=O)O)c2)o1)[C@@H](CC)N(C=O)OC(=O)C1CC1C` (stereo not given in full), the Drug metabolism entry in series [1] was “Metabolite_Detected”. Take `CCCCC[C@@H](C(=O)NCNC(=O)c1ccc(-c2ccc(C(=O)N[C@@H](CC(=O)O)C(=O)O)c(OCC(=O)O)c2)o1)[C@@H](CC)N(C=O)OC(=O)c1ccccc1OC(=O)N(C)C`: in series [1], the Drug metabolism entry was “Metabolite_Detected”.

Turning to `CCCCC[C@@H](C(=O)NCNC(=O)c1ccc(-c2ccc(C(=O)N[C@@H](CC(=O)O)C(=O)O)c(OCC(=O)O)c2)o1)[C@@H](CC)N(C=O)OC(=O)c1ccc(CN2CCOCC2)cc1`, the Drug metabolism entry in series [1] is “Metabolite_Detected”. The half-inhibitory concentration (IC50) in series [2] was below 3.98 µM. Regarding `CCCCC[C@@H](C(=O)NCNC(=O)c1ccc(-c2cc(OCC)cc(P(=O)(OCOC(=O)C(C)C)OCOC(=O)C(C)C)c2)o1)[C@@H](CC)N(O)C=O`, in series [3], the Drug metabolism entry was “Metabolite_Detected”. Turning to `CCCCC[C@@H](C(=O)NCNC(=O)c1ccc(-c2ccc(C(=O)N[C@@H](CC(=O)O)C(=O)O)c(OCC(=O)O)c2)o1)[C@@H](CC)N(C=O)OP(=O)(N[C@@H](C)C(=O)OC)Oc1ccccc1.N.N.N` (stereo not given in full), in series [1], the Drug metabolism result was “Metabolite_Detected”.

For the molecule `CCCCC[C@@H](C(=O)NCNC(=O)c1ccc(-c2ccc(C(=O)N[C@@H](CC(=O)O)C(=O)O)c(OCC(=O)O)c2)o1)[C@@H](CC)N(C=O)OC(=O)c1ccc(CN2CCOCC2)cc1C`, the Drug metabolism result in series [1] was “Metabolite_Detected”. In addition, in series [2], the concentration for half-maximal inhibition (IC50) was below 3.98 µM. In the same order, the values of `CCCCC[C@@H](C(=O)NCNC(=O)c1ccc(-c2ccc(C(=O)N[C@@H](CC(=O)O)C(=O)O)c(OCC(=O)O)c2)o1)[C@@H](CC)N(C=O)OC(=O)NC(C)(C)C` are “Metabolite_Detected” and below 3.98 µM. Consider `CCCCC[C@@H](C(=O)NCNC(=O)c1ccc(-c2cc(OCC)cc(P(=O)(O)O)c2)o1)[C@@H](CC)N(C=O)OC(=O)c1cccc(N2CCCC2)c1.N.N`, for which, in series [3], the Drug metabolism entry is recorded as “Metabolite_Detected”.

For `CCCCC[C@@H](C(=O)NCNC(=O)c1ccc(-c2ccc(C(=O)N[C@@H](CC(=O)O)C(=O)O)c(OCC(=O)O)c2)o1)[C@@H](CC)N(C=O)OC(=O)c1cccc2ccccc12`, the Drug metabolism result in series [1] is recorded as “Metabolite_Detected”. The half-maximal inhibitory concentration (IC50) in series [2] is below 3.98 µM. For `CCCCC[C@@H](C(=O)NCNC(=O)c1ccc(-c2ccc(C(=O)N[C@@H](CC(=O)O)C(=O)O)c(OCC(=O)O)c2)o1)[C@@H](CC)N(C=O)OC(=O)c1c(C)noc1C`, in that order: “Metabolite_Detected” and below 3.98 µM. As for `CCCCC[C@@H](C(=O)NCNC(=O)c1ccc(-c2ccc(C(=O)N[C@@H](CC(=O)O)C(=O)O)c(OCC(=O)O)c2)o1)[C@@H](CC)N(C=O)OC(=O)c1ccc(OC)cc1`, in series [1], the Drug metabolism entry was “Metabolite_Detected”. The same measure, in the same setting: to `CCCCC[C@@H](C(=O)NCNC(=O)c1ccc(-c2ccc(C(=O)N[C@@H](CC(=O)O)C(=O)O)c(OCC(=O)O)c2)o1)[C@@H](CC)N(C=O)OC(=O)c1cccc(C(=O)O)c1` belongs “Metabolite_Detected”.

The IC50 is the concentration needed to halve the response being measured. The low end stands for greater potency in that assay, the high end for weaker potency in that assay.
